In patent US20080028486A1, “Aluminium Tolerant Barley” (COMMONWEALTH SCIENTIFIC AND INDUSTRIAL RESEARCH ORGANISATION, priority 2004, published 2008):

How the values were obtained:
[1] = test system: root apices of transgenic barley expressing ALMT1; experiment: Malate efflux from excised root apices of transgenic barley expressing ALMT1; assay type: cell-based, Hordeum vulgare; conditions: for activation of malate efflux: 50 μM La or Er in basal solution
Method: FIG. 4—Properties of malate efflux from root apices of transgenic barley expressing ALMT1. • (A) Effect of Al concentration on malate efflux (nmoles/h/apex). Excised root apices from ALMT1 line 5 (solid circles) were exposed to Al treatments from 0 to 50 μM in basal solution for 1 h. Error bars show ±standard errors of the means (n=3). The solid squares show efflux from root apices of the control line transformed with the empty vector. • (B) Effects of niflumic acid (nif; 0 to 100 μM), La (50 μM), Er (50 μM) and basal solution (0.2 mM CaCl2 pH 4.3) on malate efflux from root apices of line 5. Excised root apices from line 5 were exposed to the various treatments in basal solution for 1 h. Error bars show ±standard errors of the means (n=3).
Malate efflux from root segments was assayed using a modification of methods described by Ryan et al. (1995a). Unless stated otherwise, 4 root apices 3 mm long were incubated with shaking in 1 ml of 0.2 mM CaCl2 (pH 4.3) for approximately 1 h. The apices were then rinsed with the CaCl2 solution three times and replaced with 1 ml of the same solution (control) or 1 ml of treatment solution (0.2 mM CaCl2 with added treatment at pH 4.3). After an incubation that typically lasted for 1 h, the solution was removed, dried and the residue re-suspended in 200 μl of buffer used for the spectrographic assay of malate (0.25 M glycine, 0.20 M hydrazine and 2.7 mM NAD adjusted to pH 9). A subsample (100 μl) was transferred to a micro-cuvette and the increase in absorbance at 340 nm measured 6 min after addition of 1 μl of malate dehydrogenase (5 mg/ml) was used to calculate the amount of malate by comparison to a standard curve.

[2] = test system: control barley plants (wild type and vector only, cv Golden Promise); experiment: Al tolerance assay: root elongation in hydroponic culture, control plants; assay type: in vivo, Hordeum vulgare
Method: (§1) Plants in hydroponic culture were assessed for Al tolerance using a hydroponic solution described as follows, supplemented with a range of AlCl3 concentrations. The hydroponic solution was made with distilled or deionised water containing 500 μM KNO3, 500 μM CaCl2, 500 μM NH4NO3, 150 μM MgSO4, 100 μM KH2PO4, 2 μM Fe:EDTA, 11 μM H3BO3, 2 μM MnCl2, 0.35 μM ZnCl2 and 0.2 μM CuCl2 adjusted to pH 5.5. The Al screening solution was the same solution as above except it contained 10 μM KH2PO4 instead of 100 μM, 2 μM FeCl3 instead of Fe:EDTA and was adjusted to pH 4.3 instead of 5.5, and was supplemented with AlCl3 at the stated concentration. The plants were grown using these solutions at a temperature of 18-25° C., usually at 20° C.
(§2) Al tolerance was assessed by determining root elongation of plants grown in hydroponic culture in the continual presence of added Al. The three barley T0 lines that were transformed with ALMT1 and expressing the transgene in the roots were tested in a range of Al levels. […] The ALMT1 gene therefore provided a dramatic enhancement of Al tolerance on the barley plants, to a level that has not been seen previously.

[3] = test system: root apices of transgenic barley expressing ALMT1; experiment: K+ efflux from excised root apices of transgenic barley line 5; assay type: cell-based, Hordeum vulgare; conditions: line 5 excised apices, 50 μM Al, mean ±SE, n=4
Method: Al-activated malate efflux from root apices of transgenic barley expressing ALMT1 was accompanied by the efflux of K^+. Net K^+ effluxes from excised apices of line 5 were calculated by subtracting corresponding values obtained for the vector only control line resulting in an efflux of 0.4±0.3 nmoles K^+/h/apex in the absence of Al and an efflux of 5.2±1.0 nmoles K^+/h/apex in the presence of 50 μM Al (means ±SE; n=4).

[4] = test system: transgenic barley T0 lines 4, 5 and 6 expressing ALMT1; experiment: Al tolerance assay: root elongation in hydroponic culture, ALMT1 transgenic barley; assay type: in vivo, Hordeum vulgare
Method: as §1, §2

[Cl][Al]([Cl])[Cl] [AlCl3, aluminium chloride]
rate of malate efflux from root apices ([1]; Al-activated efflux, transgenic barley): approx. 1 nmole/apex/h
added Al concentration up to which malate efflux increases before starting to level off ([1]; line 5 root apices, Al 0 to 50 μM in basal solution (0.2 mM CaCl2 pH 4.3), 1 h): about 25 μM
inhibition of root growth ([2]; 2 μM AlCl3): 50%
inhibition of root growth ([2]; 6 μM AlCl3): 85-90%
net K+ efflux (vector only control values subtracted) [3]: 5.2±1.0 nmoles K+/h/apex
inhibition of root growth ([4]; ALMT1 line 5, hydroponic culture, 20M AlCl3 as printed): did not show significant inhibition of root growth
inhibition of root growth ([4]; ALMT1 transgenic plants, hydroponic culture, 2, 6 or 12 μM AlCl3): did not exhibit any significant inhibition of root growth

[La] [Lanthanum]
activation of malate efflux ([1]; line 5 root apices, 1 h): ineffective in activating malate efflux

[Er] [erbium]
activation of malate efflux ([1]; line 5 root apices, 1 h): capable of eliciting malate efflux, albeit at a lower level than observed for Al

O=C(O)c1cccnc1Nc1cccc(C(F)(F)F)c1 [niflumic acid]
effect on malate efflux ([1]; line 5 root apices, niflumic acid 0 to 100 μM, basal solution, 1 h): inhibited
